The values below come from ChEMBL document CHEMBL3769303, “Discovery of membrane active benzimidazole quinolones-based topoisomerase inhibitors as potential DNA-binding antimicrobial agents” (Eur J Med Chem, 2016).

Holding throughout (assay type): functional
One test deals with Salmonella enterica. Kind of test: Antibacterial activity against Salmonella enterica ATCC 14028 by micro broth dilution method.
A further test has as its system Shigella dysenteriae. Nature of the test: Antibacterial activity against Shigella dysenteriae by micro broth dilution method.
The test system of test [1] is Escherichia coli. Nature of the test: Antibacterial activity against Escherichia coli DH52 by micro broth dilution method.
Test [2] deals with Escherichia coli. Kind of test: Antibacterial activity against Escherichia coli JM109 by micro broth dilution method.
In test [3] the test system is Staphylococcus aureus. Nature of the test: Antibacterial activity against Staphylococcus aureus ATCC 25923 by micro broth dilution method.
For a further test, the system named is Micrococcus luteus. Nature of the test: Antibacterial activity against Micrococcus luteus ATCC 4698 by micro broth dilution method. The settings on record: NCTC 2665.
The subject of test [4] is Staphylococcus aureus. Kind of test: Antibacterial activity against methicillin-resistant Staphylococcus aureus N315 by micro broth dilution method.
The test system of the next test is Bacillus spizizenii. Nature of the test: Antibacterial activity against Bacillus subtilis ATCC 6633 by micro broth dilution method.
Test [5] is described as follows: Antifungal activity against Candida mycoderma ATCC 9888 after 24 hrs by micro broth dilution method. The conditions noted are these: Candida vini.
For a further test, the system named is Cyberlindnera jadinii. Nature of the test: Antifungal activity against Candida utilis ATCC 9950 after 24 hrs by micro broth dilution method. The conditions noted are these: Williopsis jadinii, ATCC 9950, 24 h.
A further test has as its system Pseudomonas aeruginosa. Kind of test: Antibacterial activity against Pseudomonas aeruginosa ATCC 27853 by micro broth dilution method.
The subject of another test is Candida albicans. Kind of test: Antifungal activity against Candida albicans ATCC 10231 after 24 hrs by micro broth dilution method. The settings on record: ATCC 10231, 24 h.
Another test relates to Aspergillus flavus. Kind of test: Antifungal activity against Aspergillus flavus ATCC 204304 after 24 hrs by micro broth dilution method. The settings on record: ATCC 204304, 24 h.
A short description of test [6]: Antibacterial activity against Bacillus proteus ATCC 13315 by micro broth dilution method.
In a further test the test system is Saccharomyces cerevisiae. Kind of test: Antifungal activity against Saccharomyces cerevisiae ATCC 9763 after 24 hrs by micro broth dilution method. The settings on record: ATCC 9763, 24 h.

Structures are written as SMILES. Converted amounts (≈) assume the structure as drawn.

Consider `CCn1cc(C(=O)O)c(=O)c2cc(F)c(N3CCN(CNc4nc5ccccc5[nH]4)CC3)cc21`, for which the MIC against Salmonella enterica is 2 µg/mL (≈ 4.31 µM); against Shigella dysenteriae, 0.5 µg/mL (≈ 1.08 µM); against Escherichia coli [1] it was 1 µg/mL (≈ 2.15 µM); in the test on Escherichia coli [2] it was 16 µg/mL (≈ 34.4 µM); in the test with Staphylococcus aureus [3], 2 µg/mL (≈ 4.31 µM); with Micrococcus luteus, 4 µg/mL (≈ 8.61 µM). Also, the minimum inhibitory concentration (MIC) against Staphylococcus aureus [4] stood at 0.5 µg/mL (≈ 1.08 µM); with Bacillus spizizenii it was 8 µg/mL (≈ 17.2 µM); in the test on Pseudomonas aeruginosa, 1 µg/mL (≈ 2.15 µM); in [6] it was 8 µg/mL (≈ 17.2 µM). For the same compound, the MIC80 was found to be 1 µg/mL (≈ 2.15 µM) in test [5]; 1 µg/mL (≈ 2.15 µM) in the test with Cyberlindnera jadinii; 2 µg/mL (≈ 4.31 µM) with Candida albicans; 4 µg/mL (≈ 8.61 µM) against Aspergillus flavus; 8 µg/mL (≈ 17.2 µM) with Saccharomyces cerevisiae.
As to `CCn1cc(C(=O)O)c(=O)c2cc(F)c(N3CCN(Cc4nc5ccccc5n4Cc4ccccc4F)CC3)cc21`, the MIC with Salmonella enterica, in the test on Shigella dysenteriae, in the test on Escherichia coli [1], against Escherichia coli [2], in the test on Staphylococcus aureus [3] and in the test on Micrococcus luteus was 512 µg/mL (≈ 918 µM) in each case. Further, the MIC in the test with Staphylococcus aureus [4] stood at 256 µg/mL (≈ 459 µM); against Bacillus spizizenii it was 128 µg/mL (≈ 230 µM); against Pseudomonas aeruginosa, 512 µg/mL (≈ 918 µM); in test [6] it was 512 µg/mL (≈ 918 µM). The MIC80 (in test [5]; in the test with Cyberlindnera jadinii; against Candida albicans; against Aspergillus flavus; in the test on Saccharomyces cerevisiae) was 512 µg/mL (≈ 918 µM) throughout.
On to `CCn1cc(C(=O)O)c(=O)c2cc(F)c(N3CCN(Cc4nc5ccccc5n4Cc4cccc(Cl)c4)CC3)cc21`, for which the minimum inhibitory concentration (MIC) in the test on Salmonella enterica was 4 µg/mL (≈ 6.97 µM); with Shigella dysenteriae, 64 µg/mL (≈ 111 µM); in the test on Escherichia coli [1], 8 µg/mL (≈ 13.9 µM); against Escherichia coli [2] it was 64 µg/mL (≈ 111 µM); with Staphylococcus aureus [3], 64 µg/mL (≈ 111 µM); against Micrococcus luteus, 2 µg/mL (≈ 3.48 µM). The MIC against Staphylococcus aureus [4] was 2 µg/mL (≈ 3.48 µM); with Bacillus spizizenii, 16 µg/mL (≈ 27.9 µM); against Pseudomonas aeruginosa, 2 µg/mL (≈ 3.48 µM); in test [6] it was 32 µg/mL (≈ 55.7 µM). The MIC80 was 2 µg/mL (≈ 3.48 µM) in test [5]; 4 µg/mL (≈ 6.97 µM) in the test with Cyberlindnera jadinii; 8 µg/mL (≈ 13.9 µM) with Candida albicans; 1 µg/mL (≈ 1.74 µM) in the test with Aspergillus flavus; 8 µg/mL (≈ 13.9 µM) with Saccharomyces cerevisiae.
On to `CCCCCCCCCCCCn1c(CN2CCN(c3cc4c(cc3F)c(=O)c(C(=O)O)cn4C3CC3)CC2)nc2ccccc21`, for which the minimal inhibitory concentration (MIC) against Salmonella enterica amounted to 16 µg/mL (≈ 25.4 µM); against Shigella dysenteriae, 2 µg/mL (≈ 3.18 µM); against Escherichia coli [1], 8 µg/mL (≈ 12.7 µM); in the test with Escherichia coli [2] it was 16 µg/mL (≈ 25.4 µM); against Staphylococcus aureus [3], 32 µg/mL (≈ 50.8 µM); in the test with Micrococcus luteus it was 4 µg/mL (≈ 6.35 µM). In addition, the minimal inhibitory concentration (MIC) with Staphylococcus aureus [4] was determined as 64 µg/mL (≈ 102 µM); against Bacillus spizizenii it was 4 µg/mL (≈ 6.35 µM); against Pseudomonas aeruginosa, 4 µg/mL (≈ 6.35 µM); in test [6] it was 4 µg/mL (≈ 6.35 µM). For the same compound, the MIC80 turned out to be 4 µg/mL (≈ 6.35 µM) in test [5]; 32 µg/mL (≈ 50.8 µM) with Cyberlindnera jadinii; 64 µg/mL (≈ 102 µM) in the test on Candida albicans; 4 µg/mL (≈ 6.35 µM) in the test on Aspergillus flavus; 8 µg/mL (≈ 12.7 µM) with Saccharomyces cerevisiae.
Take `O=C(O)c1cn(C2CC2)c2cc(N3CCN(Cc4nc5ccccc5[nH]4)CC3)c(F)cc2c1=O`: the minimum inhibitory concentration (MIC) in the test with Salmonella enterica was found to be 0.125 µg/mL (≈ 0.271 µM); against Shigella dysenteriae, 1 µg/mL (≈ 2.17 µM); against Escherichia coli [1], 0.125 µg/mL (≈ 0.271 µM); in the test with Escherichia coli [2], 0.5 µg/mL (≈ 1.08 µM); in the test with Staphylococcus aureus [3] it was 0.25 µg/mL (≈ 0.542 µM); against Micrococcus luteus, 0.125 µg/mL (≈ 0.271 µM). Besides, the MIC is 0.125 µg/mL (≈ 0.271 µM) with Staphylococcus aureus [4], 0.125 µg/mL (≈ 0.271 µM) in the test on Bacillus spizizenii, 0.5 µg/mL (≈ 1.08 µM) in the test on Pseudomonas aeruginosa and 0.125 µg/mL (≈ 0.271 µM) in test [6]. Moreover, the MIC80 stood at 0.125 µg/mL (≈ 0.271 µM) in test [5]; 0.125 µg/mL (≈ 0.271 µM) against Cyberlindnera jadinii; 0.0625 µg/mL (≈ 0.135 µM) against Candida albicans; 0.5 µg/mL (≈ 1.08 µM) against Aspergillus flavus; 0.0625 µg/mL (≈ 0.135 µM) against Saccharomyces cerevisiae.
For `CCn1cc(C(=O)O)c(=O)c2cc(F)c(N3CCN(Cc4nc5ccc(F)cc5[nH]4)CC3)cc21`, the MIC in the test on Salmonella enterica amounted to 8 µg/mL (≈ 17.1 µM); in the test on Shigella dysenteriae it was 8 µg/mL (≈ 17.1 µM); in the test on Escherichia coli [1], 16 µg/mL (≈ 34.2 µM); in the test on Escherichia coli [2], 32 µg/mL (≈ 68.5 µM); with Staphylococcus aureus [3], 16 µg/mL (≈ 34.2 µM); against Micrococcus luteus, 0.5 µg/mL (≈ 1.07 µM). The minimum inhibitory concentration (MIC) against Staphylococcus aureus [4] was 16 µg/mL (≈ 34.2 µM); in the test with Bacillus spizizenii it was 8 µg/mL (≈ 17.1 µM); against Pseudomonas aeruginosa it was 4 µg/mL (≈ 8.56 µM); in test [6], 2 µg/mL (≈ 4.28 µM). Moreover, the MIC80 in test [5] was found to be 1 µg/mL (≈ 2.14 µM); with Cyberlindnera jadinii it was 0.25 µg/mL (≈ 0.535 µM); in the test with Candida albicans, 2 µg/mL (≈ 4.28 µM); in the test on Aspergillus flavus, 0.5 µg/mL (≈ 1.07 µM); against Saccharomyces cerevisiae, 0.5 µg/mL (≈ 1.07 µM).
